This is an account of results in ChEMBL document CHEMBL4422651, “Revisiting tubercidin against kinetoplastid parasites: Aromatic substitutions at position 7 improve activity and reduce toxicity” (Eur J Med Chem, 2019).

The test system of one series is MRC5. The series is described as follows: Cytotoxicity against human MRC5 cells assessed as reduction in cell viability after 3 days by resazurin dye-based assay. The following applies: MRC5, 72 h.
A short description of series [1]: Selectivity index, ratio of EC50 for human MRC5 cells to EC50 for Trypanosoma brucei brucei Squib 427. It is filed as toxicity. The following applies: read-out: Ratio EC50.
Series [2] has as its system Trypanosoma brucei brucei. The series is described as follows: Antitrypanosomal activity against Trypanosoma brucei brucei Squib 427 after 48 hrs by alamar blue assay. The format is functional, organism-based. The following applies: Squib 427, 48 h.
The subject of series [3] is Trypanosoma brucei rhodesiense. Kind of series: Antitrypanosomal activity against Trypanosoma brucei rhodesiense STIB-900 after 48 hrs by alamar blue assay. It is filed as functional, organism-based. The following applies: STIB-900, 48 h. On the technique in general: The colour change of resazurin is a common sign of viable cells or microbes.
A short description of series [4]: Selectivity index, ratio of EC50 for human MRC5 cells to EC50 for Trypanosoma brucei rhodesiense STIB-900. The format is toxicity. The following applies: read-out: Ratio EC50.
Series [5] can be described thus: Selectivity index, ratio of EC50 for human MRC5 cells to EC50 for nifurtimox-sensitive Trypanosoma cruzi Tulahuen CL2 harboring beta-galactosidase. The format is toxicity. The following applies: read-out: Ratio EC50.
For series [6], the system named is Trypanosoma cruzi. The series is described as follows: Potency index, ratio of EC50 for benznidazole to EC50 for test compound for antitrypanosomal activity against nifurtimox-sensitive Trypanosoma cruzi Tulahuen CL2 harboring beta-galactosidase infected in human MRC5 cells after 7 days by resazurin dye-based assay. It is filed as functional.
Series [7] concerns Trypanosoma cruzi. Kind of series: Antitrypanosomal activity against nifurtimox-sensitive Trypanosoma cruzi Tulahuen CL2 harboring beta-galactosidase infected in human MRC5 cells after 7 days by resazurin dye-based assay. The format is functional, organism-based. The following applies: Tulahuen CL2, MRC5, 168 h.
For a further series, the system named is Leishmania infantum. The series is described as follows: Antileishmanial activity against Leishmania infantum amastigotes infected in Swiss mouse primary peritoneal macrophages assessed as reduction in parasite burden after 5 days by Giemsa staining-based microscopic analysis. It is filed as functional, organism-based. The following applies: 120 h.
The subject of the next series is Peritoneal macrophage. Kind of series: Cytotoxicity against Swiss mouse primary peritoneal macrophages assessed as reduction in cell viability after 5 days. The format is cell-based. The following applies: Mus musculus, Swiss, Peritoneal macrophage, 120 h.

Usually EC50 stands for the concentration at which the effect is half-maximal. Regarding `Nc1ncnc2c1c(-c1ccc(F)cc1)cn2[C@@H]1O[C@H](CO)[C@@H](O)[C@H]1O`, the EC50 was above 64 µM in the series on MRC5, 8.81 µM in [2], 14.7 µM in [3] and 0.49 µM in the series with Trypanosoma cruzi [7]. The selectivity ratio is above 7.3 in [1], above 4.4 in series [4] and above 130 in [5]. In addition, the “Ratio EC50” value with Trypanosoma cruzi [6] is “<=10”.
With `Nc1ncnc2c1c(-c1ccc(Cl)c(Cl)c1)cn2[C@@H]1O[C@H](CO)[C@@H](O)[C@H]1O`, the EC50 in the series with MRC5 was determined as 14.7 µM; in series [2] it was 3.07 µM; in [3] it was 0.32 µM; in the series on Leishmania infantum, 1.67 µM; in the series on Peritoneal macrophage, 20 µM; with Trypanosoma cruzi [7] it was 0.19 µM. The figures for the selectivity ratio in [1], in [4] and in [5] were 4.8, 46 and 77.4, respectively. Also, the “Ratio EC50” value in the series on Trypanosoma cruzi [6] is given as “<=10”.
